This assay has as its system CN0375-F725-PDC multi-cell spheroids, viability. In words: Anticancer human tumor CN0375-F725-PDC patient-derived colon carcinoma cell line growth inhibition [TAK]. The settings on record: for viability, T/C: stronger effect = lower value. The text has this: Combinatorial screen of targeted agents with TAK-243 and ipatasertib in multi-cell type tumor spheroids
A high-throughput screen of multi-cell type tumor spheroids was designed to identify active combinations of targeted small molecules and TAK-243 or ipatasertib. Complex spheroids include a stromal component modeled by human endothelial cells (HUVEC) and fibroblasts modeled by human mesenchymal stem cells (MSCs). The concentration ranges selected for each drug and investigational agent were based upon clinically achievable concentrations if the clinical Cmax of the agent was known.
Compounds. The drugs and investigational agents: TAK-243 (785004), ipatasertib (767898), everolimus (733504), selumetinib (741078), bortezomib (756655), trametinib (758246), ixazomib (758254), vemurafenib (761431), dabrafenib (764134), sapanisertib (764658), alpelisib (765974), and copanlisib (816437), were obtained from the National Cancer Institute (NCI) Developmental Therapeutics Program Chemical Repository. The FDA-approved anticancer drug set is available from the NCI Developmental Therapeutics Program. […] The stock solutions were prepared in dimethyl sulfoxide (DMSO, Sigma-Aldrich, St. Louis, MO, cat. D2650) at 800-fold the tested concentration and stored at -70 degrees C prior to their use. All drugs and investigational agents were tested over a range starting from a high concentration at or near the clinical Cmax and decreasing in half-log increments. If the clinical Cmax for an agent had not been determined, the highest concentration tested was 10 microM.
NCI60 Cell Culture. NCI60 cell lines were obtained from the NCI Developmental Therapeutics Program Tumor Repository. For each lot of cells, the Repository performed Applied Biosystems AmpFLSTR Identifiler testing with PCR amplification to confirm consistency with the published Identifier STR profile for each cell line. Cells were kept in continuous culture for no more than 20 passages. The optimal seeding densities for each of the cell lines at each time point assessed were determined prior to performing the concentration response studies. Briefly, the NCI60 human tumor lines were grown as monolayers in RPMI 1640 medium supplemented with 10% FBS and 2 mmol/L L-glutamine.
An additional 2 lines were from the NCI60 cell line panel including melanomas, MALME-3M and SK-MEL-2. Pooled donor human umbilical vein endothelial cells (HUVEC, Lonza, cat. CC-2519) and human mesenchymal stem cells (hMSC, Lonza, cat. PT-2501) were purchased from Lonza (Walkersville, MD).
PDMR cell lines were grown in complete medium (DC medium): Dulbecco's modified Eagle's medium (DMEM)/F12 supplemented with 5% fetal bovine serum (FBS), 2 mM L-glutamine, 100 U/mL penicillin and 100 µg/ml streptomycin, 0.4 µg/ml hydrocortisone, 10 ng/ml epidermal growth factor (EGF) recombinant human protein, 24 µg/mL adenine, and 0.1 mg/mL primocin. During culture from frozen stock vials, PDMR cells were cultured in the same medium containing 10 µM Y-27632 (see Table 3). The PDCs were cultured in complete DMEM/F12 media without 10 microM Y-27632 dihydrochloride for at least two passages prior to the screen. The pooled donor HUVEC and hMSC were cultured in endothelial cell growth medium 2 (PromoCell, Heidelberg, Germany, cat. C-22011) and mesenchymal stem cell growth medium 2 (PromoCell, cat. C-28009), respectively. For all experiments, HUVEC and hMSC were used at passages </=5.
For the pre-screen, cell seeding densities were determined from a titration spanning the range from 5,000 to 313 cells per well. The mct-spheroids including 60% malignant cells, 25% HUVEC and 15% MSC dispensed as a mixture into U-bottom Ultra-Low Attachment 384-well plates (Corning, NY)
High-throughput Drug Combination Screening.
Prior to their inoculation into 384-well plates, malignant cells, HUVEC, and hMSC were removed from T flasks using TrypLE express (Thermo Fisher Scientific, cat. 12605036) and harvested by centrifugation for 5 min at 233 x g. […]

Values joined by “and” are separate entries in the source; they are usually repeats but may differ in a detail not shown here. Identical values can stand only once.
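Also: spheroids exposed to drugs for seven days.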

A word on the viability, T/C: it is the ratio of treated to control. The term IC50 denotes the concentration that inhibits the measured activity by half. For `CC(=O)Nc1cccc(-n2c(=O)n(C3CC3)c(=O)c3c(Nc4ccc(I)cc4F)n(C)c(=O)c(C)c32)c1`, the viability, T/C (compound 94.9 pM) is 106% and 100%; the viability, T/C (compound 0.0003 µM) was 96.5% and 91.6%; the viability, T/C (compound 0.000949 µM) was 78.1% and 77.9%; the viability, T/C (compound 0.003 µM) is 67.4% and 64.9%; the viability, T/C (compound 0.00949 µM) was 52.9% and 52.8%; the viability, T/C (compound 0.03 µM) is 35.6% and 38.6%. Besides, the IC50 (curve of compound) is 10.6 nM and 11.2 nM.

As to `CC(C)(C)c1nc(-c2cccc(NS(=O)(=O)c3c(F)cccc3F)c2F)c(-c2ccnc(N)n2)s1`, the viability, T/C (compound 0.0316 µM) was 126% and 115%; the viability, T/C (compound 0.1 µM) was 130% and 129%; the viability, T/C (compound 0.316 µM) was 126% and 133%; the viability, T/C (compound 1 µM) is 112% and 127%; the viability, T/C (compound 3.16 µM) was 104% and 119%; the viability, T/C (compound 10 µM) is 110% and 107%. In addition, the IC50 (curve of compound) is greater than 10000 nM.

Consider `CC(C)CC(NC(=O)C(Cc1ccccc1)NC(=O)c1cnccn1)B(O)O` (configuration not stated), for which the viability, T/C is, setting by setting: (compound 31.6 pM) 112% and 110%; (compound 0.0001 µM) 98.7% and 113%; (compound 0.000316 µM) 104% and 103%; (compound 0.001 µM) 109% and 105%; (compound 0.00316 µM) 103% and 106%; (compound 0.01 µM) 34.9% and 35.3%. In addition, the IC50 (curve of compound) was 7.76 nM and 7.87 nM.

With `CC(C)CC(NC(=O)CNC(=O)c1cc(Cl)ccc1Cl)B1OC(=O)CC(CC(=O)O)(C(=O)O)O1` (configuration not stated), the viability, T/C was 113% and 106% (compound 0.000316 µM); 112% and 104% (compound 0.001 µM); 103% and 102% (compound 0.00316 µM); 111% and 109% (compound 0.01 µM); 78.3% and 75.7% (compound 0.0316 µM); 23.4% and 22.6% (compound 0.1 µM). For the same molecule, the IC50 (curve of compound) was 57.2 nM and 55.2 nM.

Take `CC(C)NCC(C(=O)N1CCN(c2ncnc3c2C(C)CC3O)CC1)c1ccc(Cl)cc1` (configuration not stated): the viability, T/C is 97.1% [middle of 10 runs] (compound 0.3 µM); 93.7% [middle of 10 runs] (compound 0.949 µM); 91.4% [middle of 10 runs] (compound 3 µM); 84.7% [middle of 10 runs] (compound 9.49 µM); 83.7% [middle of 10 runs] (compound 30 µM). Also, the IC50 is greater than 30000 nM (compound alone, run of 02/28/2020) and greater than 30000 nM (compound alone, run of 03/19/2020).

As to `CC(C)n1nc(-c2ccc3oc(N)nc3c2)c2c(N)ncnc21`, the viability, T/C by setting is: (compound 0.000316 µM) 109% and 106%; (compound 0.001 µM) 105% and 101%; (compound 0.00316 µM) 91.7% and 93.4%; (compound 0.01 µM) 85.5% and 83.8%; (compound 0.0316 µM) 73.1% and 76.7%; (compound 0.1 µM) 58.9% and 61.4%. Also, the IC50 (curve of compound) is greater than 100 nM.

Take `CCCS(=O)(=O)Nc1ccc(F)c(C(=O)c2c[nH]c3ncc(-c4ccc(Cl)cc4)cc23)c1F`: the viability, T/C is, setting by setting: (compound 0.316 µM) 113% and 115%; (compound 1 µM) 122%; (compound 3.16 µM) 114% and 109%; (compound 10 µM) 75.1% and 65.5%; (compound 31.6 µM) 118% and 111%; (compound 100 µM) 101% and 111%. For the same molecule, the IC50 (curve of compound) was greater than 100000 nM.

`COC1CC2CCC(C)C(O)(O2)C(=O)C(=O)N2CCCCC2C(=O)OC(C(C)CC2CCC(OCCO)C(OC)C2)CC(=O)C(C)C=C(C)C(O)C(OC)C(=O)C(C)CC(C)C=CC=CC=C1C` (configuration not stated): the viability, T/C by setting is: (compound 0.000316 µM) 108% and 127%; (compound 0.001 µM) 103% and 118%; (compound 0.00316 µM) 90.9% and 96.7%; (compound 0.01 µM) 88.1% and 93.2%; (compound 0.0316 µM) 84.9% and 77.9%; (compound 0.1 µM) 83.9% and 82.5%. In addition, the IC50 (curve of compound) is greater than 100 nM.

With `COc1c(OCCCN2CCOCC2)ccc2c3n(c(=NC(=O)c4cnc(N)nc4)nc12)CCN3`, the viability, T/C by setting is: (compound 0.00316 µM) 96.6% and 99.3%; (compound 0.01 µM) 89.4% and 83.8%; (compound 0.0316 µM) 78.5% and 68.5%; (compound 0.1 µM) 63.8% and 55.3%; (compound 0.316 µM) 42.5% and 39.9%; (compound 1 µM) 34.6% and 29.2%. Moreover, the IC50 (curve of compound) is 220 nM and 144 nM.

Consider `Cc1nc(NC(=O)N2CCCC2C(N)=O)sc1-c1ccnc(C(C)(C)C(F)(F)F)c1` (configuration not stated), for which the viability, T/C runs as follows: (compound 0.0316 µM) 102% and 105%; (compound 0.1 µM) 93.8% and 98.5%; (compound 0.316 µM) 92.2% and 85.6%; (compound 1 µM) 85.7% and 77.4%; (compound 3.16 µM) 68.3% and 65.6%; (compound 10 µM) 57.7% and 47.6%. Moreover, the IC50 (curve of compound) is > 10000 nM and 9170 nM.

As to `Cn1cnc2c(F)c(Nc3ccc(Br)cc3Cl)c(C(=O)NOCCO)cc21`, the viability, T/C runs as follows: (compound 0.00949 µM) 89.7% and 95.5%; (compound 0.03 µM) 79.8% and 82.5%; (compound 0.0949 µM) 64.8% and 61.1%; (compound 0.3 µM) 55.1% and 49.1%; (compound 0.949 µM) 40.8% and 41.4%; (compound 3 µM) 33.3% and 34.5%. In addition, the IC50 (curve of compound) was 420 nM and 267 nM.

The values above are taken from PubChem BioAssay AID2060346 (Molecular Pharmacology Branch, DTP, NCI, 2025).
